Format in all cases: cell-based, La Crosse virus
Test [1] has as its system LACV D35G mutant. Conditions: Vero cells; for Fold change (/original stock) / Fold change (/passage control): EC50 ratio; for EC50: mean ± SD.
The subject of test [2] is LACV V27A mutant.
Test [3] deals with LACV D35G mutant.
In test [4] the test system is LACV V27A mutant. Particulars: Vero cells; for Fold change (/original stock) / Fold change (/passage control): EC50 ratio; for EC50: mean ± SD.

From publication PMC12406681 (Antimicrobial Agents and Chemotherapy, 2025) come the findings set out here.

Broadly, the EC50 is the concentration needed to bring the measured effect to its halfway point.

Where two headings read alike, the source gives them in different places.

Consider `CC(C)N1CN(C2c3ccccc3CCc3ccccc32)n2cc(C(=O)O)c(=O)c(O)c2C1=O` [CAPCA-1, carbamoyl pyridone carboxylic acid (CAPCA)-1], for which the “Fold change (/original stock)” value in the test on LACV D35G mutant [1] is recorded as over 46.51; with LACV V27A mutant [2] it was 4.87; with LACV D35G mutant [3] it was 13.57; with LACV V27A mutant [4], 12.91. Besides, the “Fold change (/passage control)” value in the test with LACV D35G mutant [1] is on record as over 25.32; in the test with LACV V27A mutant [2] it was 7.12; in the test with LACV D35G mutant [3], 19.83; in the test with LACV V27A mutant [4], 7.03. Besides, the EC50 in the test with LACV D35G mutant [1] is over 20 µM; in the test on LACV V27A mutant [2], 4.63 ± 0.8 µM; in the test on LACV D35G mutant [3], 12.9 ± 2.22 µM; with LACV V27A mutant [4] it was 5.55 ± 1.64 µM.

With `NC(=O)c1nc(F)c[nH]c1=O` [T-705, favipiravir, reference compound], in the test with LACV D35G mutant [1], the “Fold change (/original stock)” value is reported as 1.51, the “Fold change (/passage control)” value is 1.30 and the EC50 turned out to be 57 ± 11.8 µM. In the test on LACV V27A mutant [4], the “Fold change (/original stock)” value amounted to 1.17, the “Fold change (/passage control)” value is 1.01 and a half-maximal effect (EC50) was put at 44.3 ± 5.15 µM.
